From ChEMBL document CHEMBL3751739, “Investigating the generation of hydrogen sulfide from the phosphonamidodithioate slow-release donor GYY4137” (Medchemcomm, 2015)
Active and inactive are the calls of the source. No cut-off for these calls is given here.

Key:
RAW264.7 [1] = conditions: Mus musculus, at 200 µM
Description: Antiinflammatory activity in mouse RAW264.7 cells assessed as inhibition of LPS-induced NO production at 200 uM preincubated for 1 hr before LPS challenge measured after 24 hrs by Griess method

[2] = Induction of H2S release in phosphate buffer at 200 uM using 5,5'-dithiobis-(2-nitrobenzoic acid)
RAW264.7 [3] = conditions: Mus musculus, at 200 µM; remark: listed apart in the source
Description: Antiinflammatory activity in mouse RAW264.7 cells assessed as inhibition of LPS-induced PGE2 production at 200 uM preincubated for 1 hr before LPS challenge measured after 24 hrs by ELISA

[4] = Cytotoxicity against human Jurkat T cells assessed as reduction in cell viability at 200 uM after 24 hrs by tryphan blue assay

COc1ccc(P([O-])(=S)N2CCOCC2)cc1.[K+] (centres undefined)
inhibition (RAW264.7 [1]): inactive | Activity [2]: Not Active | inhibition (RAW264.7 [3]): inactive | Activity [4]: Non-toxic
